Consider 3 compounds from patent publication US20260297542A1, “HERBICIDE RESISTANT PLANTS” (SYNGENTA CROP PROTECTION AG, priority 2023, published 2026).

The structures appear in SMILES notation. Where a chain is given by its changes, count along the chain named.

Common to all, as to assay: E. coli hemG growth inhibition by herbicide, AtPPO1 variant
Common to all, as to format: cell-based
Conditions in all cases: read-out: percentage growth inhibition

One assay addresses T1, AtPPO1 WT (Arabidopsis thaliana, UniProt P55826).
T1 construct: expressed in transfected cells; host or cells: E. coli BL21(DE3) hemG (hemG replaced by CmR), pET24a plasmid
T1 sequence (P55826 1-537): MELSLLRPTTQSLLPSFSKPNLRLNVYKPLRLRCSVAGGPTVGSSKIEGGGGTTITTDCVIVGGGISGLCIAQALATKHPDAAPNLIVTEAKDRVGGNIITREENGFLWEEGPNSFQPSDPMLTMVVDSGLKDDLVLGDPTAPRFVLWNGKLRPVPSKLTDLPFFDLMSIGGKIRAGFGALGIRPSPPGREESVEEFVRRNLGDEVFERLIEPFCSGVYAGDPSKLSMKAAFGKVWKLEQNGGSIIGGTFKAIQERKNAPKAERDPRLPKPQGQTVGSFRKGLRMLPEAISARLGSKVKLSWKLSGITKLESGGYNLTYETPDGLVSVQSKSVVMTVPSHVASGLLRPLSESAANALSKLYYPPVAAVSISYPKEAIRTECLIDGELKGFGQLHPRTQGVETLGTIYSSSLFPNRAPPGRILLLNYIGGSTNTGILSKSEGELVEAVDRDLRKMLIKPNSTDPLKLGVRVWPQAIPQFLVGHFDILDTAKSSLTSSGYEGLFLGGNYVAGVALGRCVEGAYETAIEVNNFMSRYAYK
The procedure, abridged:
(§1)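 AtPPO1 variants from a site-saturation library, codon-optimised and T7-driven in pET24a, were expressed in E. coli BL21(DE3) lacking hemG (hemG replaced by CmR). Growth in Terrific broth with 0.1 mM IPTG plus 6.25 ppm herbicide 0 or E, 0.78 ppm herbicide B, or DMSO was read as OD600 after 24 h at 37° C; inhibition was calculated against the DMSO culture.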

The next assay addresses T2, AtPPO1 V218K (Arabidopsis thaliana, UniProt P55826, V218K).
T2 construct: expressed in transfected cells; host or cells: E. coli BL21(DE3) hemG (hemG replaced by CmR), pET24a plasmid
T2 sequence (P55826 35-537 V218K): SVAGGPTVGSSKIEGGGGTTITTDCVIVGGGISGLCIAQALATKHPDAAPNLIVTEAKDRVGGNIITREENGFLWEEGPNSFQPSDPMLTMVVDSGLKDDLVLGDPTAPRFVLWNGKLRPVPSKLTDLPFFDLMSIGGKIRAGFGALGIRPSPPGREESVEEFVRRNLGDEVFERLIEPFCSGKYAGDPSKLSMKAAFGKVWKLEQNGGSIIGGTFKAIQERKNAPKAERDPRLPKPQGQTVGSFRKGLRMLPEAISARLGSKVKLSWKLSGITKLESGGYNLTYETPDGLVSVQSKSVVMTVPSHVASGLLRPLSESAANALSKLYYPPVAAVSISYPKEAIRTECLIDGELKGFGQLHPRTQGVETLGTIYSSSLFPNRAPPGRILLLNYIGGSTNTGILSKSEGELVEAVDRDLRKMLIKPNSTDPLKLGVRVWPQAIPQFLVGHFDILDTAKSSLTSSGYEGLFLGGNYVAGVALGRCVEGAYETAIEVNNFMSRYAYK
In outline: as §1

The next assay deals with T3, AtPPO1 Y361Q (Arabidopsis thaliana, UniProt P55826, Y361Q).
T3 construct: expressed in transfected cells; host or cells: E. coli BL21(DE3) hemG (pET24a, T7 promoter)
T3 sequence (P55826 35-537 Y361Q): T2 sequence (P55826 35-537 V218K) with K184V, Y327Q
In outline: as §1

The next assay deals with T4, AtPPO1 P418M (Arabidopsis thaliana, UniProt P55826, P418M).
T4 construct: expressed in transfected cells; host or cells: E. coli BL21(DE3) hemG (pET24a, T7 promoter)
T4 sequence (P55826 35-537 P418M): T2 sequence (P55826 35-537 V218K) with K184V, P384M
In outline:
as §1

One may read the inhibition as how much of the control response was suppressed. Regarding `C#CCN1C(=O)C(F)(F)Oc2cc(F)c(-n3c(=O)n(C)c(=S)n(C)c3=O)cc21` [Herbicide B, trifludimoxazin], the inhibition at 0.78 ppm at AtPPO1 WT worked out at 61%; on AtPPO1 V218K, 38%; on AtPPO1 Y361Q it was 19%; on AtPPO1 P418M, 12%.

As to `CCOC(=O)[C@]1(C)CC(c2cc(-n3c(=O)n(C)c(=S)n(C)c3=O)c(F)cc2Cl)=NO1` [Herbicide D, ethyl (5S)-3-[2-chloro-5-(3,5-dimethyl-2,6-dioxo-4-thioxo-1,3,5-triazinan-1-yl)-4-fluoro-phenyl]-5-methyl-4H-isoxazole-5-carboxylate], the inhibition at 6.25 ppm on AtPPO1 WT stood at 58%; on AtPPO1 V218K, 31%; on AtPPO1 Y361Q it was 32%; on AtPPO1 P418M, 25%.

With `CC(C)N(C)S(=O)(=O)NC(=O)c1cc(-n2c(=O)cc(C(F)(F)F)n(C)c2=O)c(F)cc1Cl` [Herbicide E, saflufenacil], the inhibition at 6.25 ppm on AtPPO1 WT was 64%; on AtPPO1 V218K it was 50%; at AtPPO1 Y361Q, 0%; on AtPPO1 P418M it was 64%.
